# Counter-ions that a name gives are not always drawn.
# What was measured:
# [1] = Metabolic stability and metabolite identity, rat intestinal S9 fractions; type: in vitro ADME; settings: FFA incubation, LC-MS/MS; X = identified
# Description: LC‐MS/MS analyses to assess metabolic stability and identify the transporter substrate were performed using an API 4000 QTRAP mass spectrometer (SCIEX, Framingham, MA) with electrospray ionization in positive mode. Chromatography was performed using an Atlantis dC18 analytical column (100 × 2.1 mm, 5 µm; Waters Corporation, Milford, MA). Mobile phases were 0.2% v/v formic acid in water and 0.2% v/v formic acid in acetonitrile. For metabolic stability experiments, FFA and metabolites were eluted at a flow rate of 0.6 mL/min, with a linear gradient of 20%−80% acetonitrile from 0.30−2.0 min. For transporter substrate experiments, the gradient was slightly modified to achieve suitable chromatography. The mass transitions monitored were 232.0 > 159.0 for FFA and 348.0 > 330.0 for 1ʹ‐OH‐midazolam‐d4 internal standard. […]
# FFA (1 or 10 µM) was incubated with liver and intestinal S9 fractions (2 mg protein/mL) at 37 ± 1°C in 0.2‐mL incubation mixtures containing potassium phosphate buffer (50 mM, pH 7.4), magnesium chloride (MgCl2) (3 mM), and EDTA (1 mM, pH 7.4), in the presence or absence of a three‐component cofactor mixture (NADPH‐generating system, uridine diphosphate glucuronic acid (UDPGA) [8 mM], and 3’‐phosphoadenosine 5’‐phosphosulfate [0.5 mM]). […] Supernatant fractions were analyzed by LC‐MS/MS.
# To characterize substrate loss and metabolic stability, duplicate samples were analyzed by LC‐MS/MS to determine the change in substrate concentration over the incubation period. The rate constant of elimination (kel, min^−1) was determined from the time course of substrate loss based on single exponential decay (A(t)=A0(‐kelt)) . Half‐life in vitro was determined by the following equation: t1/2 = 0.693/kel. The in vitro intrinsic clearance (CLint) was calculated from the rate constant of elimination as follows: CLintμL/min/mgprotein=kelmin^‐1×incubationvolume(μL)/mgproteinperincubation.
# Percent loss of substrate was determined by normalizing the mean analyte peak‐area ratio at each time point to the average of four replicates at the 0‐min time point (100%).
# CYP2C19 = CYP2C19 (Homo sapiens, UniProt P33261); experiment: in vitro; settings: microsomes
# Description: (§1) To determine the metabolic role of individual CYP450 enzymes more quantitatively, FFA (1 μM) or nFFA (0.1 μM) was manually incubated in duplicate with human liver microsomes (1 mg protein/mL) for 60 min (FFA), or for 0 and 120 min (nFFA), in the presence of direct‐acting or metabolism‐dependent chemical inhibitors. […] Solvent controls were processed in parallel with each inhibitor. Under the conditions described above, incubations were conducted and reactions terminated at 0 or 120 min. Metabolite formation for chemical inhibitors was normalized over time to metabolite formation in the respective solvent controls for each inhibitor. Assays were conducted in duplicate due to the low biological and technical variability expected in this assay; statistical analysis was not possible with duplicate samples.
# CYP1A2 = biological target: T1, CYP1A2 (Homo sapiens, UniProt P05177); experiment: Chemical inhibition of FFA metabolism in human liver microsomes, CYP1A2; type: in vitro ADME; settings: probe FFA (1 µM), demethylation to nFFA, inhibitor 10 µM, metabolism-dependent, read-out: Reduction in FFA demethylation (percent inhibition by a selective inhibitor)
# T1 construct: manually incubated in duplicate with human liver microsomes (1 mg protein/mL); tissue Sekisui XenoTech, LLC; host or cells: pooled human liver microsomes (200 donors)
# T1 sequence (P05177 1-516): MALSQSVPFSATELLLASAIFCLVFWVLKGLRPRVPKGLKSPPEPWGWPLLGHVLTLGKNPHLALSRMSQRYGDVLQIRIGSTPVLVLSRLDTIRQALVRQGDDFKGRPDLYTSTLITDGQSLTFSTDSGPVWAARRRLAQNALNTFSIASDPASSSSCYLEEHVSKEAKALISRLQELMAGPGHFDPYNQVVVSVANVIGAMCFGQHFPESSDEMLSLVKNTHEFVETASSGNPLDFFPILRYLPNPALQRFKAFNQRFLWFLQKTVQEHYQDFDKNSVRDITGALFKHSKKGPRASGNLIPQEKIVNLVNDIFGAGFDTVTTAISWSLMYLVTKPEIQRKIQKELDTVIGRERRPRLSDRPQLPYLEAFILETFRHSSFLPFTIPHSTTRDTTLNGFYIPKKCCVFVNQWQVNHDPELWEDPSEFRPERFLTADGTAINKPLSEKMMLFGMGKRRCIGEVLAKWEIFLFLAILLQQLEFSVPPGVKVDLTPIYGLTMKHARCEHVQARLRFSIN
# Description: as §1
# CYP3A4/5 = settings: inhibitor 0.1, 0.5, 1 µM, direct-acting; FFA 1 μM, human liver microsomes
# Description: as §1
# CYP2B6 = biological target: T2, CYP2B6 (Homo sapiens, UniProt P20813); experiment: Chemical inhibition of FFA metabolism in human liver microsomes, CYP2B6; type: in vitro ADME; settings: probe FFA (1 µM), demethylation to nFFA, inhibitor 30 µM, metabolism-dependent, read-out: Reduction in FFA demethylation (percent inhibition by a selective inhibitor)
# T2 construct: manually incubated in duplicate with human liver microsomes (1 mg protein/mL); tissue Sekisui XenoTech, LLC; host or cells: pooled human liver microsomes (200 donors)
# T2 sequence (P20813 1-491): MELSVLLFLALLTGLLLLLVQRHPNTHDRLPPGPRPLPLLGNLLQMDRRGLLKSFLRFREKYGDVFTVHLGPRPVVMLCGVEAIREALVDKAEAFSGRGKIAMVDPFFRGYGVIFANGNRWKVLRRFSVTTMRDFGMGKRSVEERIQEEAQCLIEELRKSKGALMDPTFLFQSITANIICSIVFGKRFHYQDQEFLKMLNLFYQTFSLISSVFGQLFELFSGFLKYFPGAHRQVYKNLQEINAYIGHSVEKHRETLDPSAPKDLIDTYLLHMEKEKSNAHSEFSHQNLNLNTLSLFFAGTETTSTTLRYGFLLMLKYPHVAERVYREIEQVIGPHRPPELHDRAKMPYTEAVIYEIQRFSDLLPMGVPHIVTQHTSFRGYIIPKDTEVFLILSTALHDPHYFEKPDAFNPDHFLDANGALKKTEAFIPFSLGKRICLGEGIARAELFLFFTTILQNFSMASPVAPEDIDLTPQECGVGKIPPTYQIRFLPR
# Description: as §1
# CYP2D6 = CYP2D6 (Homo sapiens, UniProt P10635); experiment: in vitro; settings: microsomes
# Description: as §1
# CYP2C9 = biological target: T3, CYP2C9 (Homo sapiens, UniProt P11712); experiment: Chemical inhibition of FFA metabolism in human liver microsomes, CYP2C9; type: in vitro ADME; settings: inhibitor 20 µM, metabolism-dependent
# T3 construct: manually incubated in duplicate with human liver microsomes (1 mg protein/mL); tissue Sekisui XenoTech, LLC; host or cells: pooled human liver microsomes (200 donors)
# Description: as §1
# P‐gp = P‐gp (Homo sapiens, UniProt P08183); settings: cited from earlier work
# BCRP = biological target: T4, BCRP (Homo sapiens, UniProt Q9UNQ0); settings: cited from earlier work
# T4 sequence (Q9UNQ0 1-655): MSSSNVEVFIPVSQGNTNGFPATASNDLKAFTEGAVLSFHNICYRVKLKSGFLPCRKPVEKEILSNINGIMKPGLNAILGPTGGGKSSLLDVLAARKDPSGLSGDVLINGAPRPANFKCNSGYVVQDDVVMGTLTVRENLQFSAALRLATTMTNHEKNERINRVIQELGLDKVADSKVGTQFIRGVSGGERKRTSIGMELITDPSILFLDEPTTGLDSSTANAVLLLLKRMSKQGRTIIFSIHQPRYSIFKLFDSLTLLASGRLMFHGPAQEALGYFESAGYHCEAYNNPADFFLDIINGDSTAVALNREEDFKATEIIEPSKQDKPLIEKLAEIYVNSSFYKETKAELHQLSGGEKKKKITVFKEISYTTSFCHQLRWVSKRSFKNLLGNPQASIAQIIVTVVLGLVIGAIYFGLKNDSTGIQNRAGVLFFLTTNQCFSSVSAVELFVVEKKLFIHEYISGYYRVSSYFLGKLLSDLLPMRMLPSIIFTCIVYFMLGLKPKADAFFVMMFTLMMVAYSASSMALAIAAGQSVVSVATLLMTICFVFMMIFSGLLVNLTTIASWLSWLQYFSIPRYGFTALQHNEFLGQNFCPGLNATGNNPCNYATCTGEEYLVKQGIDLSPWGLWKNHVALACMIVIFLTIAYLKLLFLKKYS
# Sequence of P‐gp (P08183 whole entry): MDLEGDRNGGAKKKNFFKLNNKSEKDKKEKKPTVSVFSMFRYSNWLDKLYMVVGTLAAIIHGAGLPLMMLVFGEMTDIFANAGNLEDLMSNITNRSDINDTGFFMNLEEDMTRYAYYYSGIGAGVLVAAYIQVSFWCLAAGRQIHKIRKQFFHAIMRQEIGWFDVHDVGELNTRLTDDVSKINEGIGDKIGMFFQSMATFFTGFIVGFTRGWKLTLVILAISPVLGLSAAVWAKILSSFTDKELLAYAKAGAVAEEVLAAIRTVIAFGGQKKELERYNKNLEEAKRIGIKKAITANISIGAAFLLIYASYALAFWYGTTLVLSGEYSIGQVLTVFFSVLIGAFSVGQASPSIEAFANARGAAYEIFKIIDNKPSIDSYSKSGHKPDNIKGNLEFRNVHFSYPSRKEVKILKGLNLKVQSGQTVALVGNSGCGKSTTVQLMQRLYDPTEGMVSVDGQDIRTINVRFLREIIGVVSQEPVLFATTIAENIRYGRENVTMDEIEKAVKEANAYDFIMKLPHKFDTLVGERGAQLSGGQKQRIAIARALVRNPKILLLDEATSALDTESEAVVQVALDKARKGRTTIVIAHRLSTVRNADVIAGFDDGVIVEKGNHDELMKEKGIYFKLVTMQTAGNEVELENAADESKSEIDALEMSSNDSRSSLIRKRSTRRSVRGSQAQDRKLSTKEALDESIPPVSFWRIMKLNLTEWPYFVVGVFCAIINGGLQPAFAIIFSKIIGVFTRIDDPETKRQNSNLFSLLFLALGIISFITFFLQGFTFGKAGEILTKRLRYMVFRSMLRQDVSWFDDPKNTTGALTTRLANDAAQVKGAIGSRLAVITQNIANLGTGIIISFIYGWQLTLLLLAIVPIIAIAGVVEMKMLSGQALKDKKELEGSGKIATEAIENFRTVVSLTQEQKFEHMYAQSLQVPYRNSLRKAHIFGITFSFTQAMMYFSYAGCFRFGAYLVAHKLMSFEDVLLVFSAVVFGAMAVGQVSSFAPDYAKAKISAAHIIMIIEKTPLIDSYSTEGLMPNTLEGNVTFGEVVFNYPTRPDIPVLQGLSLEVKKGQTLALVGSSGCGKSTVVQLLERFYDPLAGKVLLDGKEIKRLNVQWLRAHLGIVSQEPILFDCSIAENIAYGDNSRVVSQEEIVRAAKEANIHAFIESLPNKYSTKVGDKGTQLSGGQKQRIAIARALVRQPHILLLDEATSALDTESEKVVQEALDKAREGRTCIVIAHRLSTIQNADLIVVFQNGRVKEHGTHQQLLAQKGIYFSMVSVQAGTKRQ
# T3 sequence (P11712 whole entry): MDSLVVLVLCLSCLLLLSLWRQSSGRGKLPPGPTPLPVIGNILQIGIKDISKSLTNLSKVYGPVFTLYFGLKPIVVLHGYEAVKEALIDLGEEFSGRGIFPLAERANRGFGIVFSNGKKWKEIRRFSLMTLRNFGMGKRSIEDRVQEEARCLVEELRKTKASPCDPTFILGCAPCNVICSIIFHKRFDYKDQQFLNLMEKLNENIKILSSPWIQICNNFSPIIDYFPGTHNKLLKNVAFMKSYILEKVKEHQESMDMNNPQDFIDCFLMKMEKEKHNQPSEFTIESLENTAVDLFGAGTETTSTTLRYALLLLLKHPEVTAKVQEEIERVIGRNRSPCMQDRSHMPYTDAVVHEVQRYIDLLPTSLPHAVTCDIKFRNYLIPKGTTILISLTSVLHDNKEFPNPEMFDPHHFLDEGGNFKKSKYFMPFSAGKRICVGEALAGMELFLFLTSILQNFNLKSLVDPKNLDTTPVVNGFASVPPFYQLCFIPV
# Sequence of CYP2C19 (P33261 whole entry): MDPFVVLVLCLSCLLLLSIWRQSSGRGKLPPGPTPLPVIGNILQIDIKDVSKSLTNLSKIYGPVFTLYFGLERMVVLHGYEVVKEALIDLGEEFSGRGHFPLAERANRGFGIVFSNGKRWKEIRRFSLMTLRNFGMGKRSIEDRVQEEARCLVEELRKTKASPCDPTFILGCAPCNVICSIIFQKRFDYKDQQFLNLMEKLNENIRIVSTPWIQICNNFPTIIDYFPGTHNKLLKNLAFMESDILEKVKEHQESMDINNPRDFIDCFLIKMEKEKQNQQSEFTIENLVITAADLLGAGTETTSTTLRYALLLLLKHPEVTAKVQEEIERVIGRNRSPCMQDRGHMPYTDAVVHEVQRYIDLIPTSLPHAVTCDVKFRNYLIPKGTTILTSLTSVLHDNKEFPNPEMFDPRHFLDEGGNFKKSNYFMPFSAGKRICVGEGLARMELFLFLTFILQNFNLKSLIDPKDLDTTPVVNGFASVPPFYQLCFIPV
# Sequence of CYP2D6 (P10635 whole entry): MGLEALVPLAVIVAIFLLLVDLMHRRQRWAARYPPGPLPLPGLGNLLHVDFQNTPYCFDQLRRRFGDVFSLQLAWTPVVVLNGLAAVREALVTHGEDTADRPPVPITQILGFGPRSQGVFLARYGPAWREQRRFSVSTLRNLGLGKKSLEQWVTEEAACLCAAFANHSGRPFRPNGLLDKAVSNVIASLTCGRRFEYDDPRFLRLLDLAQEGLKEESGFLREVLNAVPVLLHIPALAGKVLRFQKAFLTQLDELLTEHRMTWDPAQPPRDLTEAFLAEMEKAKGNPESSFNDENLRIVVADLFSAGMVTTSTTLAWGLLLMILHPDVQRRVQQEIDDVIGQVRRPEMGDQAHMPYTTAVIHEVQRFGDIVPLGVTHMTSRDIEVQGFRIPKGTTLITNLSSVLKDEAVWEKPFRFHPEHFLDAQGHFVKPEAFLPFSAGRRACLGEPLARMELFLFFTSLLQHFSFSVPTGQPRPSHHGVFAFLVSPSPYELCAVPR
Structure (SMILES),substrate capacity for P‐gp (P‐gp),substrate capacity for BCRP (BCRP),further results
CC(Cc1cccc(C(F)(F)F)c1)NO (centres unmarked) [C2],,,"identified in Intestinal S9 fractions, Rat [1]: trace"
"COc1ccc2nc([S@@+]([O-])Cc3ncc(C)c(OC)c3C)[nH]c2c1 [Esomeprazole, esomeprazole]",,,"Reduction in FFA demethylation (percent inhibition by a selective inhibitor) (CYP2C19; 60 min, 10 µM): 8%; inhibition at 60 min, 10 µM (CYP2C19; Reduction in FFA demethylation (percent inhibition by a selective inhibitor)): < 15%"
"Cc1nc2c([nH]1)c(=O)n(C)c(=O)n2Cc1ccco1 [Furafylline, furafylline]",,,"inhibition at 60 min, 10 µM (CYP1A2): 32%"
"CC(=O)N1CCN(c2ccc(OCC3COC(Cn4ccnc4)(c4ccc(Cl)cc4Cl)O3)cc2)CC1 (centres unmarked) [Ketoconazole, ketoconazole]",,,Reduction in FFA demethylation (percent inhibition by a selective inhibitor) (CYP3A4/5): None
"c1ccc(C2(N3CCCCC3)CCCCC2)cc1 [Phencyclidine, phencyclidine hydrochloride]",,,"inhibition at 60 min, 30 µM (CYP2B6): 42%"
"C=C[C@H]1C[N@@]2CC[C@H]1C[C@@H]2[C@@H](O)c1ccnc2ccc(OC)cc12 [Quinidine, quinidine]",,,"inhibition at 60 min, 1 µM (CYP2D6): 37%"
O=C(O)COc1ccc(C(=O)c2cccs2)c(Cl)c1Cl [Tienilic acid],,,"inhibition at 60 min, 20 µM (CYP2C9; human, liver microsomes, probe FFA (1 µM), demethylation to nFFA, read-out: Reduction in FFA demethylation (percent inhibition by a selective inhibitor)): < 15%; Reduction in FFA demethylation (percent inhibition by a selective inhibitor) (CYP2C9; FFA 1 μM): 14%"
NC(=O)N1c2ccccc2C=Cc2ccccc21 [carbamazepine],did not show substrate capacity,did not show substrate capacity,
CC[C@@H](C(N)=O)N1CCCC1=O [levetiracetam],did not show substrate capacity,did not show substrate capacity,
CCC1(c2ccccc2)C(=O)NC(=O)NC1=O [phenobarbital],,did not show substrate capacity,
O=C1NC(=O)C(c2ccccc2)(c2ccccc2)N1 [phenytoin],did not show substrate capacity,did not show substrate capacity,
CC1(C)O[C@@H]2[C@@H](CO[C@@]3(COS(N)(=O)=O)OC(C)(C)O[C@@H]23)O1 [topiramate],did not show substrate capacity,did not show substrate capacity,
CCCC(CCC)C(=O)O [valproate],did not show substrate capacity,did not show substrate capacity,
